Measurements taken from paper PMC12030706, “Novel ^177Lu-Labeled [Thz^14]Bombesin(6–14) Derivatives with Low Pancreas Accumulation for Targeting Gastrin-Releasing Peptide Receptor-Expressing Cancer” (Pharmaceuticals, 2025).

Experiments:
[1] = Ex vivo biodistribution in PC-3 tumor-bearing mice; settings: mouse; for tissue uptake at 72 h: 72 h post-injection; for tissue uptake at 120 h: 120 h post-injection; for tissue uptake at 24 h: 24 h post-injection; for tissue uptake at 4 h: 4 h post-injection
Method: (§1) SPECT/CT imaging experiments were performed using an MILabs (Houten, The Netherlands) U-SPECT-II/CT scanner with a custom-made ultra-high-sensitivity big mouse collimator (2 mm pinhole size) following previously reported procedures. […] Male NOD.Cg-Rag1^tm1Mom Il2rg^tm1Wjl/SzJ (NRG) mice were used in these experiments because of their immunodeficient characteristics and excellent radiation tolerance. Mice were anaesthetized and subcutaneously implanted with 5 × 10^6 PC-3 prostate cancer cells (100 µL; 1:1 PBS/Matrigel) behind the left shoulder. SPECT/CT imaging and biodistribution studies were performed once the tumors reached a diameter of 5–8 mm, typically after approximately 4 weeks of growth.
(§2) For ex vivo biodistribution studies, the mice were injected with ~2–6 MBq of the radioligand. […] Blocking study was conducted at 1 h post-injection via co-injection of the radioligand with 100 μg of [D-Phe^6,Leu-NHEt^13,des-Met^14]Bombesin(6–14). Organs/tissues of interested were collected, weighed, and measured using an automatic gamma counter.

[2] = system: PC-3 tumor-bearing mice; assay: Ex vivo biodistribution in PC-3 tumor-bearing mice
Method: as §1, §2

[3] = system: PC-3 tumor-bearing NRG mouse; assay: Longitudinal SPECT/CT imaging in PC-3 tumor-bearing mice; format: in vivo, mice (NRG); settings: SPECT/CT images
Method: The PC-3 tumor-bearing mice were sedated (2.5% isoflurane in O2) and injected with ^177Lu-labeled ligands (15–32 MBq) through a lateral caudal tail vein. […] At each time point, a 5 min CT scan was obtained using 615 μA and 60 kV parameters for localization and attenuation, followed by 2 × 30 min static SPECT scans acquired in list mode with an energy window centered around 208 keV. The MILabs U-SPECT II reconstruction software (version 8.00) was used to reconstruct data, and the images were decay corrected to the time of injection with PMOD v 3.402 (PMOD Technologies GmbH, Fallanden, Switzerland).

[4] = small intestine, Uptake in small intestine
[5] = 1 h blocked (co-injected with 100 µg [D-Phe6,Leu-NHEt13,des-Met14]Bombesin(6-14))
[6] = 1 h post-injection, 100 µg [D-Phe6,Leu-NHEt13,des-Met14]Bombesin(6–14)

Compound: CC(C)C[C@H](NC(=O)[C@H](Cc1cnc[nH]1)N(C)C(=O)CNC(=O)[C@@H](NC(=O)[C@H](C)NC(=O)[C@H](Cc1c[nH]c2ccccc12)NC(=O)[C@H](CCC(N)=O)NC(=O)[C@@H](Cc1ccccc1)NC(=O)CN1CCC(NC(=O)CN2CCN(CC(=O)O)CCN(CC(=O)O)CCN(CC(=O)O)CC2)CC1)C(C)(C)C)C(=O)N1CSC[C@H]1C(N)=O [[^177Lu]Lu-LW01110, metal not drawn]
- tissue uptake at 72 h ([1]; liver, Uptake in liver): 0.07 ± 0.01 %ID/g
- tissue uptake at 120 h ([1]; liver, Uptake in liver): 0.04 ± 0.01 %ID/g
- tissue uptake at 24 h ([1]; lungs, Uptake in lungs): 0.07 ± 0.03 %ID/g
- tissue uptake at 1 h ([1]; muscle, Uptake in muscle, 1 h post-injection): 0.15 ± 0.02 %ID/g
- tissue uptake at 24 h ([1]; muscle, Uptake in muscle): 0.01 %ID/g
- tissue uptake at 72 h ([1]; muscle, Uptake in muscle): 0.01 %ID/g
- tissue uptake at 1 h ([1]; pancreas, 100 ug, Uptake in pancreas, 1 h blocked (co-injected with 100 µg [D-Phe6,Leu-NHEt13,des-Met14]Bombesin(6-14))): 2.71 ± 0.76 %ID/g
- tissue uptake at 1 h ([1]; pancreas, Uptake in pancreas, 1 h post-injection): 11.1 ± 1.37 %ID/g
- tissue uptake at 4 h ([1]; pancreas, Uptake in pancreas): 4.91 ± 0.63 %ID/g
- tissue uptake at 24 h ([1]; pancreas, Uptake in pancreas): 3.1 ± 0.48 %ID/g
- tissue uptake at 120 h ([1]; pancreas, Uptake in pancreas): 0.34 ± 0.04 %ID/g
- tissue uptake at 1 h ([1]; small intestine, 100 ug, Uptake in small intestine, 1 h blocked (co-injected with 100 µg [D-Phe6,Leu-NHEt13,des-Met14]Bombesin(6-14))): 0.49 ± 0.14 %ID/g
- tissue uptake at 1 h ([1]; small intestine, Uptake in small intestine, 1 h post-injection): 2.01 ± 0.13 %ID/g
- tissue uptake at 4 h [1, 4]: 0.56 ± 0.2 %ID/g
- tissue uptake at 24 h [1, 4]: 0.3 ± 0.1 %ID/g
- tissue uptake at 1 h ([1]; spleen, 100 ug, Uptake in spleen, 1 h blocked (co-injected with 100 µg [D-Phe6,Leu-NHEt13,des-Met14]Bombesin(6-14))): 0.21 ± 0.05 %ID/g
- tissue uptake at 1 h ([1]; spleen, Uptake in spleen, 1 h post-injection): 0.28 ± 0.05 %ID/g
- tissue uptake at 4 h ([1]; spleen, Uptake in spleen): 0.15 ± 0.03 %ID/g
- tissue uptake at 72 h ([1]; spleen, Uptake in spleen): 0.1 ± 0.02 %ID/g
- tissue uptake at 120 h ([1]; spleen, Uptake in spleen): 0.05 ± 0.01 %ID/g
- tissue uptake at 1 h ([1]; stomach, 100 ug, Uptake in stomach, 1 h blocked (co-injected with 100 µg [D-Phe6,Leu-NHEt13,des-Met14]Bombesin(6-14))): 0.17 ± 0.1 %ID/g
- tissue uptake at 1 h ([1]; stomach, Uptake in stomach, 1 h post-injection): 0.99 ± 0.21 %ID/g
- tissue uptake at 4 h ([1]; stomach, Uptake in stomach): 0.43 ± 0.16 %ID/g
- tissue uptake at 24 h ([1]; stomach, Uptake in stomach): 0.17 ± 0.07 %ID/g
- tissue uptake at 72 h ([1]; stomach, Uptake in stomach): 0.08 ± 0.02 %ID/g
- tissue uptake at 120 h ([1]; stomach, Uptake in stomach): 0.04 ± 0.02 %ID/g
- tissue uptake at 1 h ([1]; testes, 100 ug, Uptake in testes, 1 h blocked (co-injected with 100 µg [D-Phe6,Leu-NHEt13,des-Met14]Bombesin(6-14))): 0.3 ± 0.16 %ID/g
- tissue uptake at 24 h ([1]; testes, Uptake in testes): 0.02 ± 0.01 %ID/g
- tissue uptake at 72 h ([1]; testes, Uptake in testes): 0.02 %ID/g
- tissue uptake at 120 h ([1]; testes, Uptake in testes): 0.01 %ID/g
- Uptake in lungs [2, 5]: 0.52 ± 0.08 %ID/g
- Uptake in muscle [2, 5]: 0.14 ± 0.03 %ID/g
- Tumor/blood uptake ratio ([2]; 1 h post-injection): 15.9 ± 1.15
- Uptake in adrenal glands ([2]; 1 h post-injection): 1.22 ± 0.38 %ID/g
- Uptake in blood ([2]; 1 h post-injection): 0.69 ± 0.06 %ID/g
- Uptake in bone ([2]; 1 h post-injection): 0.14 ± 0.05 %ID/g
- Uptake in brain ([2]; 1 h post-injection): 0.03 ± 0.00 %ID/g
- Uptake in liver ([2]; 1 h post-injection): 0.40 ± 0.05 %ID/g
- Uptake in lungs ([2]; 1 h post-injection): 0.69 ± 0.12 %ID/g
- Uptake in testes ([2]; 1 h post-injection): 0.23 ± 0.04 %ID/g
- reduction of average pancreas uptake by co-injection of blocker [2, 6]: 76%
- reduction of average tumor uptake by co-injection of blocker [2, 6]: 73%
- Uptake in adrenal glands ([2]; 4 h post-injection): 1.02 ± 0.33 %ID/g
- Uptake in brain ([2]; 4 h post-injection): 0.03 ± 0.02 %ID/g
- Uptake in heart ([2]; 4 h post-injection): 0.06 ± 0.06 %ID/g
- Uptake in liver ([2]; 4 h post-injection): 0.23 ± 0.07 %ID/g
- Uptake in lungs ([2]; 4 h post-injection): 0.23 ± 0.11 %ID/g
- Uptake in muscle ([2]; 4 h post-injection): 0.03 ± 0.01 %ID/g
- Uptake in testes ([2]; 4 h post-injection): 0.06 ± 0.05 %ID/g
- Uptake in heart ([2]; 24 h post-injection): 0.03 ± 0.00 %ID/g
- Uptake in spleen ([2]; 24 h post-injection): 0.12 ± 0.02 %ID/g
- Uptake in adrenal glands ([2]; 72 h post-injection): 0.41 ± 0.06 %ID/g
- Uptake in kidneys ([2]; 72 h post-injection): 0.52 ± 0.10 %ID/g
- Uptake in large intestine ([2]; 72 h post-injection): 0.23 ± 0.04 %ID/g
- Uptake in lungs ([2]; 72 h post-injection): 0.06 ± 0.03 %ID/g
- Uptake in pancreas ([2]; 72 h post-injection): 1.03 ± 0.30 %ID/g
- Uptake in small intestine ([2]; 72 h post-injection): 0.09 ± 0.03 %ID/g
- Uptake in large intestine ([2]; 120 h post-injection): 0.09 ± 0.02 %ID/g
- Uptake in lungs ([2]; 120 h post-injection): 0.03 ± 0.03 %ID/g
- Uptake in small intestine ([2]; 120 h post-injection): 0.03 ± 0.00 %ID/g
- Uptake in large intestine ([2]; mouse, in vivo, 100 ug, 1 h): 0.29 ± 0.08 %ID/g
- uptake in PC-3 tumor xenografts cleared within 24 h ([2]; relative to 1 h uptake): 37%
- excretion pathway [3]: excreted mainly via the renal pathway
